Laboratory results: patent publication US20050009739A1, “Formulation strategies in stabilizing peptides in organic solvents and in dried states” (priority 2002, published 2005)
Ends that are not written are not given here.

Legend:
[1] = Stability of PACAP 66 in DMSO at 40° C. in the presence of different metal salts (RP-HPLC recovery, CE purity); assay type: physicochemical; conditions: 2 mg/mL; for PACAP 66 degraded: 4 weeks, RP-HPLC
Procedure: Different metal salts, including ZnCl2, MgCl2, and CaCl2 were separately dissolved at 1 mM in DMSO, a non-aqueous organic solvent. PACAP 66 was then dissolved in these solutions at 2 mg/mL. The bulk solution was aliquoted into 2-mL screw-capped (with an o-ring) sterile polypropylene vials. These stability samples were incubated at 40° C. and analyzed at predetermined intervals.
More than 70% of PACAP 66 was degraded in DMSO in 4 weeks at 40° C. by RP-HPLC, but only approximately 10% of PACAP 66 was degraded in the presence of 1 mM ZnCl2 under the same storage conditions. […] The CE results were similar to the findings from the RP-HPLC analysis.

[2] = Stability of acidified, lyophilized PACAP 66 in DMSO at 40° C.; assay type: physicochemical; conditions: for PACAP 66 degraded: 2 weeks
Procedure: Several acid solutions were prepared at 0.1%, including HCl, trifluoro acetic acid (TFA), and H3PO4 and cooled to 2-8° C. The cold acid solutions were then mixed with PACAP 66 at a PACAP 66:acid molar ratio of 1:10. After mixing, the cold PACAP 66 solutions were immediately placed inside a precooled freeze-drier and were lyophilized. The lyophilized material was further equilibrated in a desiccator containing P2O5 for at least one day to absorb additional moisture from the lyophilized peptide. The acidified and dried material was then dissolved in DMSO at 2 mg/mL and stability was conducted as described in the upper section.
The recovery of HCl-acidified PACAP 66 at the end of a 2-week period was 97% by RP-HPLC. However, the recovery could be slightly overestimated, as the corresponding purity of PACAP 66 in the sample was only 89% by RP-HPLC.
We understand that peptides can be hydrolyzed readily under acidic conditions in an aqueous solution. […] In the acidification of PACAP 66, the pH of acidified PACAP 66 solution was measured to be 2.2 after addition of TFA. At this pH, PACAP 66 should be rapidly hydrolyzed.

[3] = Stability of PACAP 66 solution at 300 mg/mL in DMSO at 40° C.; assay type: physicochemical; conditions: 23 weeks
Excerpt: (§1) To test whether a metal salt would stabilize PACAP 66 at a high peptide concentration in an organic solvent, a high concentration of a metal salt would be required, assuming a fixed ratio of metal and peptide is needed for stabilization. A metal salt, however, has limited solubility in an organic solvent Therefore, a similar preparation method was adopted for sample preparation of peptide-metal mixtures at high concentrations, as described under Acidification and Lyophilization of PACAP 66, supra. Briefly, a metal salt and the peptide were first dissolved at a fixed molar ratio in an aqueous solution. The solution was then aliquoted in 3-mL glass vials at a fixed volume and lyophilized. Stability samples were prepared by adding a fixed amount of an organic solvent in the vial. The sample vials were then capped, sealed, and incubated at 40° C. Stability samples were first diluted to a reasonable concentration before analysis by RP-HPLC or CE. Similarly, a peptide suspension was prepared by mixing a proper amount of an organic solvent in a sample vial containing the lyophilized mixture and incubated at 40° C. Stability of solid PACAP 66 was evaluated directly by incubating the sample vial containing the lyophilized mixture at 40° C.
PACAP 66 in the sample was acidified in the absence and presence of ZnCl2. Approximately 70% of the peptide was degraded in the control sample after storage for 23 weeks, while approximately 20% was degraded in the acidified samples in the presence or absence of ZnCl2.

[4] = Stability of PACAP 66 solution at 20 mg/mL in 1-methyl-2-pyrrolinidone at 40° C.; assay type: physicochemical; conditions: acidified samples
Excerpt: as §1
PACAP 66 in the sample was acidified in the absence and presence of ZnCl2.

[5] = Stability of PACAP 66 suspension at 20 mg/mL in 2-propanol at 40° C.; assay type: physicochemical; conditions: suspension 20 mg/mL in 2-propanol
Excerpt: as §1

[6] = Stability of PACAP 66 in a lyophilized state at 40° C.; assay type: physicochemical
Excerpt: as §1

[7] = Stability of peptide in an aqueous solution; assay type: physicochemical
[8] = Solubility of peptide in organic solvents; assay type: physicochemical; conditions: some organic solvents
[9] = pH 4; cited from earlier work

| Substance | stabilizing effect compared with the control ([1]; 1 mM CaCl2) | stabilizing effect compared with the control ([1]; 1 mM MgCl2) | PACAP 66 degraded ([1]; 1 mM ZnCl2) | PACAP 66 degraded ([1]; control without metal salt) | PACAP 66 degraded ([2]; acidified (HCl, TFA or H3PO4) and lyophilized PACAP 66, DMSO 2 mg/mL) | relative stabilization effect by acids ([2]; acidified and lyophilized PACAP 66 in DMSO) | PACAP 66 degraded ([2]; unprocessed PACAP 66 (control), DMSO 2 mg/mL) | peptide degraded ([3]; acidified (HCl), absence of ZnCl2) | peptide degraded ([3]; acidified (HCl), presence of ZnCl2) | peptide degraded ([3]; control sample) | effect of addition of ZnCl2 on stability [4] | effect of addition of ZnCl2 on storage stability [5] | effect of acidification on stability during storage [6] | effect of addition of ZnCl2 on stability ([6]; acidified) | effect of different metals on stability ([7]; aqueous solution, 40° C., zinc, magnesium or calcium) | effect of zinc oxide on stability ([7]; aqueous solution, zinc oxide at 10 mM (FIG. 1)) | stability in an aqueous environment ([7]; aqueous, 40° C. (FIG. 1)) | solubility in organic solvents [8] | stability in an aqueous solution [9] |
| --- | --- | --- | --- | --- | --- | --- | --- | --- | --- | --- | --- | --- | --- | --- | --- | --- | --- | --- | --- |
| HSDAVFTDNYTRLRKQVAAKKYLQSIKNKRY [PACAP 66] | did not have any significant stabilizing effect | did not have any significant stabilizing effect | approximately 10% | More than 70% | less than 10% | HCl >TFA >H3PO4 | More than 50% | approximately 20% | approximately 20% | Approximately 70% | seems to stabilize PACAP 66 to a higher degree | significantly improved the storage stability | significantly stabilized the peptide | seems to stabilize the peptide to a higher degree | does not improve its stability | did not stabilize | not stable | dissolved easily |  |
| Secretin: a PACAP-like peptide |  |  |  |  |  |  |  |  |  |  |  |  |  |  |  |  |  |  | can be degraded easily |
